The values that follow come from ChEMBL document CHEMBL4007488, “Amphiphilic Indole Derivatives as Antimycobacterial Agents: Structure-Activity Relationships and Membrane Targeting Properties” (J Med Chem, 2017).

Holding throughout (assay type): functional
For assay [1], the system named is Mycobacterium tuberculosis variant bovis BCG. Kind of assay: Ratio of WCC99.9 for Mycobacterium bovis BCG ATCC 35734 under low-oxygen tension conditions to MBC99.9 for Mycobacterium bovis BCG ATCC 35734.
Assay [2] shares this test system. As to the kind of experiment: Ratio of WCC99.9 for Mycobacterium bovis BCG ATCC 35734 under low-oxygen tension conditions to MIC90 for Mycobacterium bovis BCG ATCC 35734.
Assay [3] shares this test system. As to the kind of experiment: Ratio of MBC99.9 to MIC90 for Mycobacterium bovis BCG ATCC 35734.

A value given as a limit tells only on which side of the number the result lay.

Consider `CCCCCCCCn1cc(CN2CCCCCC2)c2c(F)cccc21`, for which the Ratio in assay [1] was >2; in assay [2], >4; in assay [3] it was 2.
